Earlier results, collected in patent publication US20200230082A1, “TOPICAL ACETAMINOPHEN FORMULATIONS FOR ITCH RELIEF” (UNIVERSITY OF MIAMI, priority 2017, published 2020).
Read-outs that look alike come from different tables or passages of the source.

Solubility % (solvent: Ethanol): 37^1%
Solubility % (solvent: PEG-400): 18.9^3%
Solubility % (solvent: Propylene Glycol): 9.8^2%
Solubility % (solvent: Water): 1.7^1%
SMILES: CC(=O)Nc1ccc(O)cc1 [acetaminophen]
